For assay [1], the target named is Synaptic vesicular amine transporter (Rattus norvegicus, UniProt Q01827). The assay is classed as functional.
The target in the next assay is T1, Thromboxane A2 receptor (Homo sapiens, UniProt P21731).
T1 sequence (P21731 whole entry): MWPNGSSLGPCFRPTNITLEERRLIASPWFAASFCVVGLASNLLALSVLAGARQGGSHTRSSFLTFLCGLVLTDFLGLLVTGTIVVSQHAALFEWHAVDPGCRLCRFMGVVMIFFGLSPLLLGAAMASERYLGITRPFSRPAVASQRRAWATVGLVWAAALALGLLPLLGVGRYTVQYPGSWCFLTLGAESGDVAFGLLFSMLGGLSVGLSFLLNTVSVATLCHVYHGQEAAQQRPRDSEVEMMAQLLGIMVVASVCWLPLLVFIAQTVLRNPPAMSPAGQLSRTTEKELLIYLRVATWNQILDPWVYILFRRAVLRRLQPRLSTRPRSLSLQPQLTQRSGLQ
The assay is classed as functional, cell-based.

In the next assay the target is Acetylcholinesterase (Homo sapiens, UniProt P22303). The assay is classed as functional.
Assay [2] addresses Sodium channel protein type 5 subunit alpha (Homo sapiens, UniProt Q14524). Type of assay: functional, cell-based.
The target in assay [3] is 5-hydroxytryptamine receptor 5A (Homo sapiens, UniProt P47898).
The target of the next assay is D(1B) dopamine receptor (Homo sapiens, UniProt P21918).
For assay [4], the target named is 5-hydroxytryptamine receptor 6 (Homo sapiens, UniProt P50406).
In assay [5] the target is Rod cGMP-specific 3',5'-cyclic phosphodiesterase subunit alpha (Homo sapiens, UniProt P16499). Type of assay: functional.
Assay [6] has as its target Gamma-aminobutyric acid type B receptor subunit 1 (Homo sapiens, UniProt Q9UBS5).
In assay [7] the target is T2, Androgen receptor (Rattus norvegicus, UniProt P15207).
T2 sequence (P15207 whole entry): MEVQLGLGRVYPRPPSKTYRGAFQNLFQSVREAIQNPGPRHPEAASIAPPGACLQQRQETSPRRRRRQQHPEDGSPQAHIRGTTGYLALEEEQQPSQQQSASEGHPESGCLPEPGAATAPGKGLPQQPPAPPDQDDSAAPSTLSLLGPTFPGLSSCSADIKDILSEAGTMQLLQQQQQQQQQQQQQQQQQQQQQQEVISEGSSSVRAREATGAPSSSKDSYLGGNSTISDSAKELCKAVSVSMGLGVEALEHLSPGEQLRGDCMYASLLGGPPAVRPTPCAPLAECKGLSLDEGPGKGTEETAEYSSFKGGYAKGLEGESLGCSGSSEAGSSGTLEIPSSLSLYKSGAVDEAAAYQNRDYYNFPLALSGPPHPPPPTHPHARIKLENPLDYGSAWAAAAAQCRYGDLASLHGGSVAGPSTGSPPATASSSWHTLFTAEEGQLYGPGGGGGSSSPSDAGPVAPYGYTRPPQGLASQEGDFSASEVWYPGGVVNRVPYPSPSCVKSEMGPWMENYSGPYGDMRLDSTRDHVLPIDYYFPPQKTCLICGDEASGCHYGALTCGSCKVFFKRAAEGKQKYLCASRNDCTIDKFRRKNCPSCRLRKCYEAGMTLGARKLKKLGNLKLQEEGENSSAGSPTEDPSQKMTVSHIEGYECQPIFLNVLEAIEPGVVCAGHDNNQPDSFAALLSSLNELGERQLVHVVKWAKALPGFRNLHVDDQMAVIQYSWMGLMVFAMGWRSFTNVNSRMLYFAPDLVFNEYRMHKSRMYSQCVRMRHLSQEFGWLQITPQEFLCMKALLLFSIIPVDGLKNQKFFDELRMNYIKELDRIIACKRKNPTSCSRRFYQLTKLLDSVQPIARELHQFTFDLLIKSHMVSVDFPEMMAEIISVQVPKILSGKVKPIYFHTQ
Type of assay: functional.

For another assay, the target named is T3, Adenosine receptor A1 (Homo sapiens, UniProt P30542).
T3 sequence (P30542 whole entry): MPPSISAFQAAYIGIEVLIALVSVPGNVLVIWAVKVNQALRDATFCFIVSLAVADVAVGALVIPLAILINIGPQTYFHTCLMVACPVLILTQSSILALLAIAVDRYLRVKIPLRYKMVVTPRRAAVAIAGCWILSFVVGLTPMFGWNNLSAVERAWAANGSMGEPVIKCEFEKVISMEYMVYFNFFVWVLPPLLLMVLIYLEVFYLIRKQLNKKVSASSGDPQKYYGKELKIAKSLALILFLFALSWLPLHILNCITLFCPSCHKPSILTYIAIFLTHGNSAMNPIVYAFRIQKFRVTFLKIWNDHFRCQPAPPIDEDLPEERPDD

For assay [8], the target named is Voltage-dependent L-type calcium channel subunit alpha-1C (Homo sapiens, UniProt Q13936). The assay is classed as functional, cell-based.
For assay [9], the target named is T2, Androgen receptor. Type of assay: functional. The source holds these as a separate data set.
Assay [10] addresses T2, Androgen receptor.
Further: assay procedure not described here.

Sodium channel protein type 5 subunit alpha, sequence (Q14524 whole entry): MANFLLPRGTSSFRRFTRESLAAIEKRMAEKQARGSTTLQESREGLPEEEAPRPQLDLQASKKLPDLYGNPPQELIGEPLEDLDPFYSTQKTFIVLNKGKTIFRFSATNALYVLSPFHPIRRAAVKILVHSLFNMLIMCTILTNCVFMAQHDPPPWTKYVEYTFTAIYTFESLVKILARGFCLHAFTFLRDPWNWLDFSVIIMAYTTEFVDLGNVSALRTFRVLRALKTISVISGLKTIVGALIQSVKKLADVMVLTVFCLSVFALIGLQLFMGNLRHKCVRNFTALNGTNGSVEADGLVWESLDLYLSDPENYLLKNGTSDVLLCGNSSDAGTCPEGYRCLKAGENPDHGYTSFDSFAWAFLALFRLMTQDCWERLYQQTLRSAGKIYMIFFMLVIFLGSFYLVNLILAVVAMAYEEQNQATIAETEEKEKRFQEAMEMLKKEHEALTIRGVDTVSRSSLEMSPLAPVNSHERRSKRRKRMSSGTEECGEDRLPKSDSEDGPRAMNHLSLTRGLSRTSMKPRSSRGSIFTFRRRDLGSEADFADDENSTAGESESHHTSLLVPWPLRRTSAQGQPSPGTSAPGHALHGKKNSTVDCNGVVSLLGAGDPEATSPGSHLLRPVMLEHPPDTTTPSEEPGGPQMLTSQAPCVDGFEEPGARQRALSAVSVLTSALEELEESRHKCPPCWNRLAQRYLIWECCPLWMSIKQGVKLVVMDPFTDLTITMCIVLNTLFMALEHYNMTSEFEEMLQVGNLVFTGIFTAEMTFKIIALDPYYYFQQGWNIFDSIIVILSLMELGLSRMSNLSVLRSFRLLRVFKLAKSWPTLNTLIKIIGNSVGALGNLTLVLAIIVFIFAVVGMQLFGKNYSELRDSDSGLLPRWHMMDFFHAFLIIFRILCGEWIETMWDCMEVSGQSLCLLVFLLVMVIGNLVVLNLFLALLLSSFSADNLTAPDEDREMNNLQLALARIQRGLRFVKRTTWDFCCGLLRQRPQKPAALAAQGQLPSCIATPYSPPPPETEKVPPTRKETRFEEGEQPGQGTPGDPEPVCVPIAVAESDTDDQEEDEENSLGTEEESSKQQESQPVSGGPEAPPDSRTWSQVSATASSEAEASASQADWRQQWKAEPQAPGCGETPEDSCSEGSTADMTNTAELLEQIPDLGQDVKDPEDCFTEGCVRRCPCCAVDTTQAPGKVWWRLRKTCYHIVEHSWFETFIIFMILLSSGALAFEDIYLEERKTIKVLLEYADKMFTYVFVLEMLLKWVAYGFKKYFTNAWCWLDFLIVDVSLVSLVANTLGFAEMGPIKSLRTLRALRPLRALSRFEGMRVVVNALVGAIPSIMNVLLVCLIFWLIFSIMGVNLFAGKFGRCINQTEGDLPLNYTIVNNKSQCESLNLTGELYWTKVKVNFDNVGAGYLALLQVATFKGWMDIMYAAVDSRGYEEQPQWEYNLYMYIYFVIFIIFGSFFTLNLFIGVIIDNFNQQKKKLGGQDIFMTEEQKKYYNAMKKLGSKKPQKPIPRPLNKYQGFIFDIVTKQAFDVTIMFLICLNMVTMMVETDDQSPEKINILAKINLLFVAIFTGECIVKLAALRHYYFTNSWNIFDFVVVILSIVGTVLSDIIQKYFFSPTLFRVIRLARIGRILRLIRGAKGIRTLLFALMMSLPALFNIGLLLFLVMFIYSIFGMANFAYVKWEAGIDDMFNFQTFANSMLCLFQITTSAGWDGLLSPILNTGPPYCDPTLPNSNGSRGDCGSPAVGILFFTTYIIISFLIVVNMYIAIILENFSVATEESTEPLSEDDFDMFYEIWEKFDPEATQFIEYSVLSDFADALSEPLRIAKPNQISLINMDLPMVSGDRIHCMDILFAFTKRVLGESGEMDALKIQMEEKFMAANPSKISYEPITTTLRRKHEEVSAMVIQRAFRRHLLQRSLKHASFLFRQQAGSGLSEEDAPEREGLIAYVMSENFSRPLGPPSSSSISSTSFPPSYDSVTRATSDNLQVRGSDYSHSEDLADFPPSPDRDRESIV
5-hydroxytryptamine receptor 5A, sequence (P47898 whole entry): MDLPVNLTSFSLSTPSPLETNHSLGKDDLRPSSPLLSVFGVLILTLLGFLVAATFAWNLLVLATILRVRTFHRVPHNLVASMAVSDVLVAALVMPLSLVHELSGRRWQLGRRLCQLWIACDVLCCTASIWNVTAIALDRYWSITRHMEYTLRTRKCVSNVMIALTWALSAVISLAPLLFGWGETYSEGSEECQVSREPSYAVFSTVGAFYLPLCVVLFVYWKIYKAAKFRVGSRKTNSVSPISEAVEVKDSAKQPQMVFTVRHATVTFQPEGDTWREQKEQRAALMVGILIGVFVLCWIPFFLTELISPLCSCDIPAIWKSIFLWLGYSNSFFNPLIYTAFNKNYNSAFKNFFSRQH
D(1B) dopamine receptor, sequence (P21918 whole entry): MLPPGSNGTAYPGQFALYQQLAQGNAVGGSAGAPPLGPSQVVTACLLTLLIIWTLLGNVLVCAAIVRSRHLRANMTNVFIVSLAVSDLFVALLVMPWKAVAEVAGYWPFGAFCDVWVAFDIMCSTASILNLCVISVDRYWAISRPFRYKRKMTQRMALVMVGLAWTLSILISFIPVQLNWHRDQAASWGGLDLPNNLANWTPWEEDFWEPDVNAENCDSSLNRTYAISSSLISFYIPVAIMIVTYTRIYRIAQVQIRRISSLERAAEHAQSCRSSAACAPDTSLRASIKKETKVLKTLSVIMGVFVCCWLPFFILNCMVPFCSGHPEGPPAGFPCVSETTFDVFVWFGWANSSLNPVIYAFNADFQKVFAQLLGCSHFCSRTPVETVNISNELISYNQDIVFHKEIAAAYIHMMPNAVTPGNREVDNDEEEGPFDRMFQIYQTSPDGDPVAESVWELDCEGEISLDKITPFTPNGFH
Synaptic vesicular amine transporter, sequence (Q01827 whole entry): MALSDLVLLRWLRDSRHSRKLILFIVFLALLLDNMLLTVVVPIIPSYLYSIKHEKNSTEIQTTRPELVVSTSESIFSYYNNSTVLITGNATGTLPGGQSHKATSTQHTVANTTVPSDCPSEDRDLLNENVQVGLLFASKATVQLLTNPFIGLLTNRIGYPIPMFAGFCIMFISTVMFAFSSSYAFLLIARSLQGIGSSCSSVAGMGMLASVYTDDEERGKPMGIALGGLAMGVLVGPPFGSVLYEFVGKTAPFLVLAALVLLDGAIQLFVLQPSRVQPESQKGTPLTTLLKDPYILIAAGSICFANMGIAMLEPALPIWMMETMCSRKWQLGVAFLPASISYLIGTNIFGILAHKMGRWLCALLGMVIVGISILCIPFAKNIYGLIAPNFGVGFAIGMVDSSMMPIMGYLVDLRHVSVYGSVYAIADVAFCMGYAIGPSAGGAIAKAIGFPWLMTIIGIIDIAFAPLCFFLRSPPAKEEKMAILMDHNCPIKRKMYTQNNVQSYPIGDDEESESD
Rod cGMP-specific 3',5'-cyclic phosphodiesterase subunit alpha, sequence (P16499 whole entry): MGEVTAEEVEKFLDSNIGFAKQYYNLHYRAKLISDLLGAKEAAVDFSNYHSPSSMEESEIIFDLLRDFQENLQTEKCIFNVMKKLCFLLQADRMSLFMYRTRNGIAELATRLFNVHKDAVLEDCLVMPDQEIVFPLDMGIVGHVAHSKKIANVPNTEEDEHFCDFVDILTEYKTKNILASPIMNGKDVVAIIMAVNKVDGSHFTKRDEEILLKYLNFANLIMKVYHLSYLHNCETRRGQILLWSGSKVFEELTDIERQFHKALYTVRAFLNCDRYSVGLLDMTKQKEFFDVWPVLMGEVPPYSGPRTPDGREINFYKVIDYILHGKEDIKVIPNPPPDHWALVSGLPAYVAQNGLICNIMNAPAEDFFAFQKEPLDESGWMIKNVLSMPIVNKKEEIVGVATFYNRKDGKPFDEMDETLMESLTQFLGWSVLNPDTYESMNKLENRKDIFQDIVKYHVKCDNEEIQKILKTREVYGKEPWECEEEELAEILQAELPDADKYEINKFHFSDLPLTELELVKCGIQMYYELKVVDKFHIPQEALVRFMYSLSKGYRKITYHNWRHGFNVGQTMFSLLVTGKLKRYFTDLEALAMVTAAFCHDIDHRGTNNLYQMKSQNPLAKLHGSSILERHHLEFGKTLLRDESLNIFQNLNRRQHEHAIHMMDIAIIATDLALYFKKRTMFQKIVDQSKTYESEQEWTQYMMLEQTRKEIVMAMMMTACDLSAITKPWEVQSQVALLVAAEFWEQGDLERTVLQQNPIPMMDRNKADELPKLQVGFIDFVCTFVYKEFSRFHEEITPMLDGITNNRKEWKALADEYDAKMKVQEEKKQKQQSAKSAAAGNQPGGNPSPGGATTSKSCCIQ
5-hydroxytryptamine receptor 6, sequence (P50406 whole entry): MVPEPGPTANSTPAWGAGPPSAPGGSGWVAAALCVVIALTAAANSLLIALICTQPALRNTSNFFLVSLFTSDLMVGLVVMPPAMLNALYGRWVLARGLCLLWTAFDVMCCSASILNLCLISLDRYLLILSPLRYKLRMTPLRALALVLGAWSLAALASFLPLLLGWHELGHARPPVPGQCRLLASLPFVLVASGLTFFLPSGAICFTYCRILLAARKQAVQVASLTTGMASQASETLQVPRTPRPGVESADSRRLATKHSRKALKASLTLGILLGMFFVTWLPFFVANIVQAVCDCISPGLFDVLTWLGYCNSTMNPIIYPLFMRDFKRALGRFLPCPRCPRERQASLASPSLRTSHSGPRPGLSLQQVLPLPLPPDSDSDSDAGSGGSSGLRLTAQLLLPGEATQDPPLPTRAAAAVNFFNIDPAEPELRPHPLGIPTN

Usually AC50 stands for the midpoint of the concentration-response curve, whichever way the signal moves. Take `O=C(O)c1cc(O)ccc1O` [GENTISIC ACID]: the AC50 in assay [1] is > 30 µM.
In the case of `CN(C)CC(c1ccc(O)cc1)C1(O)CCCCC1` (stereo unspecified) [DESVENLAFAXINE], in assay [1], the concentration at half-maximal activity (AC50) is > 30 µM.
Consider `c1ccc([C@H]2CN3CCSC3=N2)cc1` [LEVAMISOLE], for which the AC50 is > 30 µM at Thromboxane A2 receptor, > 30 µM on Acetylcholinesterase and > 50 µM in assay [2].
Consider `CN(C)CCC(c1ccc(Cl)cc1)c1ccccn1` (stereo unspecified) [CHLORPHENIRAMINE], for which the AC50 in assay [3] is > 10 µM; on D(1B) dopamine receptor it was > 10 µM; in assay [4] it was > 10 µM; in assay [2], > 30 µM; in [5] it was > 10 µM.
For the compound `Cn1nnc2c(C(N)=O)ncn2c1=O` [TEMOZOLOMIDE], the AC50 on Thromboxane A2 receptor is > 30 µM; at Acetylcholinesterase, > 30 µM; in [4], > 10 µM; in [6], > 10 µM.
Take `O=C(OCC(O)CO)c1ccccc1Nc1ccnc2cc(Cl)ccc12` (stereo unspecified) [GLAFENINE]: the AC50 at Thromboxane A2 receptor is 9.8 µM; on Acetylcholinesterase, > 30 µM; on Androgen receptor [7], > 30 µM.
In the case of `Cc1cn([C@H]2C=C[C@@H](CO)O2)c(=O)[nH]c1=O` [STAVUDINE], the AC50 on Thromboxane A2 receptor is > 30 µM; on Adenosine receptor A1, > 30 µM; in assay [4] it was > 10 µM; in assay [6], > 10 µM.
As for `CCOC(=O)[C@H](CCc1ccccc1)N[C@@H](C)C(=O)N1[C@H](C(=O)O)C[C@@H]2CCC[C@@H]21`, the concentration at half-maximal activity (AC50) in assay [2] is > 30 µM.
Take `CCCCCCOc1nsnc1C1=CCCN(C)C1` [XANOMELINE]: the values for the AC50 in assay [1], in [8] and in [2] were 1.8 µM, 10 µM and 19 µM, respectively.
As to `CC[C@H]1[C@@H](O)[C@@H]2[C@H](CC[C@]3(C)[C@@H]([C@H](C)CCC(=O)O)CC[C@@H]23)[C@@]2(C)CC[C@@H](O)C[C@@H]12` [OBETICHOLIC ACID], the AC50 (in assay [1]; at Androgen receptor [9]; in assay [8]; in assay [2]; at Androgen receptor [7]) was > 30 µM throughout.
For `CCCN1C[C@H](CSC)C[C@@H]2c3cccc4[nH]cc(c34)C[C@H]21` [PERGOLIDE], the AC50 in assay [6] is > 10 µM.
Consider `Cc1ccc(-c2cc(C(F)(F)F)nn2-c2ccc(S(N)(=O)=O)cc2)cc1` [CELECOXIB], for which the concentration at half-maximal activity (AC50) in assay [3] is > 10 µM; at D(1B) dopamine receptor, > 10 µM; in [4], > 10 µM; on Androgen receptor [10] it was > 30 µM; in assay [5] it was > 10 µM; in assay [6] it was > 10 µM.
Take `CCc1oc2ccccc2c1C(=O)c1cc(I)c(O)c(I)c1` [BENZIODARONE]: the activity on Adenosine receptor A1 was half-maximal at 18.2 µM (AC50).
Take `O=C(CCNNC(=O)c1ccncc1)NCc1ccccc1` [NIALAMIDE]: the values for the AC50 in assay [1] and in assay [2] were > 30 µM and > 50 µM, respectively.
Consider `NCC(CC(=O)O)c1ccc(Cl)cc1` (stereo unspecified) [BACLOFEN], for which the AC50 at Thromboxane A2 receptor was > 30 µM; in assay [3], > 10 µM; at D(1B) dopamine receptor it was > 10 µM; on Acetylcholinesterase, > 30 µM; in assay [4] it was > 10 µM; in [5] it was > 10 µM.
Consider `CNC1Cc2ccccc2N(C)c2ccccc21` (stereo unspecified) [METAPRAMINE], for which the half-maximal activity concentration (AC50) at Thromboxane A2 receptor, on Acetylcholinesterase and on Androgen receptor [7] was > 30 µM in each case.
As to `C1CCC(C(CC2CCCCN2)C2CCCCC2)CC1` (stereo unspecified) [PERHEXILINE], the AC50 on Androgen receptor [7] is > 30 µM.
For the compound `Cc1cn([C@H]2C[C@H](N=[N+]=[N-])[C@@H](CO)O2)c(=O)[nH]c1=O` [ZIDOVUDINE], the AC50 in assay [2] is > 30 µM; in assay [6], > 10 µM.
On to `CS(=O)(=O)c1ccc(C2=C(c3ccccc3)C(=O)OC2)cc1` [ROFECOXIB], for which the AC50 (in assay [3]; on D(1B) dopamine receptor; in [4]; in [5]; in assay [6]) was > 10 µM each time.
Consider `O=C(Cc1ccc(-c2ccccc2)cc1)Nc1ccccn1` [DIFENPIRAMIDE], for which the AC50 on Adenosine receptor A1 is > 30 µM.
With `CC(C)C[C@H]1C(=O)N2CCC[C@H]2[C@]2(O)O[C@](NC(=O)[C@@H]3C=C4c5cccc6[nH]c(Br)c(c56)C[C@H]4N(C)C3)(C(C)C)C(=O)N12` [BROMOCRIPTINE], the AC50 at Thromboxane A2 receptor and at Acetylcholinesterase was > 30 µM in each case.
For the compound `C[C@@H](O)[C@H]1C(=O)N2C(C(=O)O)=C(S[C@@H]3CN[C@H](C(=O)N(C)C)C3)[C@H](C)[C@H]12` [MEROPENEM], the AC50 at Thromboxane A2 receptor and at Acetylcholinesterase was > 300 µM throughout.
As to `COCCCN1CCC(NC(=O)c2cc(Cl)c(N)c3c2OCC3)CC1` [PRUCALOPRIDE], the AC50 at Adenosine receptor A1 was > 30 µM.
In the case of `C[C@]12CCC(=O)C=C1CC[C@@H]1[C@@H]2[C@@H](O)C[C@@]2(C)[C@H]1CC[C@]2(O)C(=O)CO` [HYDROCORTISONE], the AC50 at Androgen receptor [10] is > 30 µM.
`COc1ccc(CC(C)(C)NC[C@H](O)c2cc(O)cc3c2OCC(=O)N3)cc1` [OLODATEROL]: the half-maximal activity concentration (AC50) was > 30 µM at Acetylcholinesterase, > 50 µM in [2] and > 30 µM at Androgen receptor [7].
Turning to `Clc1ccc2nsnc2c1NC1=NCCN1` [TIZANIDINE], the AC50 at Androgen receptor [10] was > 30 µM.
Turning to `NS(=O)(=O)Cc1noc2ccccc12` [ZONISAMIDE], the AC50 on Androgen receptor [10] is > 10 µM.
As for `N[C@@H]1[C@H]2CN(c3nc4c(cc3F)c(=O)c(C(=O)O)cn4-c3ccc(F)cc3F)C[C@@H]12` [TROVAFLOXACIN], the AC50 at Thromboxane A2 receptor, at Acetylcholinesterase and at Androgen receptor [7] was > 30 µM throughout.
For `O=C(O[C@H]1C[C@H]2CC[C@@H](C1)[N+]21CCCC1)C(O)(c1ccccc1)c1ccccc1` [TROSPIUM], the AC50 at Androgen receptor [9] and at Androgen receptor [7] was > 30 µM each time.
On to `C=CCc1ccccc1OCC(O)CNC(C)C` (stereo unspecified) [ALPRENOLOL], for which the AC50 at Androgen receptor [9] and on Androgen receptor [7] was > 30 µM throughout.
`Cc1cc(C#N)cc(C)c1Oc1nc(Nc2ccc(C#N)cc2)nc(N)c1Br` [ETRAVIRINE] returned an AC50 at Adenosine receptor A1 of 22.5 µM.
On to `COc1ccccc1OCC(O)CN1CCN(CC(=O)Nc2c(C)cccc2C)CC1` (stereo unspecified) [RANOLAZINE], for which the AC50 in [8] is > 50 µM.
As to `CC[C@H]1OC(=O)[C@H](C)[C@@H](O[C@H]2C[C@@](C)(OC)[C@@H](O)[C@H](C)O2)[C@H](C)[C@@H](O[C@@H]2O[C@H](C)C[C@H](N(C)C)[C@H]2O)[C@](C)(O)C[C@@H](C)CN(C)[C@H](C)[C@@H](O)[C@]1(C)O` [AZITHROMYCIN], the concentration at half-maximal activity (AC50) at Adenosine receptor A1 is > 30 µM; in assay [4], > 10 µM; in [2] it was > 30 µM; in assay [6], > 10 µM.
Take `c1cnc(N2CCN(Cc3ccc4c(c3)OCO4)CC2)nc1` [PIRIBEDIL]: the AC50 at Thromboxane A2 receptor and at Acetylcholinesterase was > 30 µM each time.
Take `CC1(C)NC(=O)N(c2ccc([N+](=O)[O-])c(C(F)(F)F)c2)C1=O` [NILUTAMIDE]: the AC50 at Adenosine receptor A1 is > 30 µM.
The same measure, in the same setting: the result for `CCOC(=O)[C@H](CCc1ccccc1)N[C@@H](C)C(=O)N1[C@H](C(=O)O)C[C@H]2CCCC[C@@H]21` [TRANDOLAPRIL] reads > 30 µM.

The values above are taken from ChEMBL document CHEMBL5291721, “A preclinical secondary pharmacology resource illuminates target-adverse drug reaction associations of marketed drugs” (Nat Commun, 2023).
